Entries after “also recorded” stand apart in the source; their conditions may differ. Where two headings read alike, the source gives them in different places.
Assays:
[1] = test system: [^3 H]dextromethorphan receptor; conditions: cited from earlier work; for effect on [^3 H]dextromethorphan binding / binding to the dextromethorphan site (in words): central nervous system site; for IC50: read-out: IC50, inhibition of [^3 H]dextromethorphan binding, in vitro
[2] = test system: maximal electroshock seizures (tonic hindlimb extension); assay: maximal electroshock (MES) procedure for mice, transauricular (Example I); assay type: in vivo; conditions: for mice protected: 500 mg/kg i.p.
Method: For combination studies two separate injections were administered. […] The absence of tonic hindlimb extension was taken as evidence for seizure protection.

[3] = observed signs of toxicity in mice after ethosuximide; assay type: in vivo; conditions: 500 mg/kg i.p.
[4] = test system: maximal electroshock induced seizures; assay: maximal electroshock (MES) induced seizures in mice (Example II); assay type: in vivo, mice (male CF-1); conditions: for % Protected: 30 min before testing
Method: All drugs were dissolved in saline (0.9%; w/v) and delivered intraperitoneally in a volume equal to 1 percent of body weight. Animals failing to show tonic hindlimb extension were scored as protected from MES-induced convulsions.

[5] = following 20 to 60 mg dextromethorphan p.o. in humans; cited from earlier work
[6] = test system: CNS side effects (rotorod ataxia); assay: rotorod-ataxia toxicity test (CNS side effects); conditions: maximal therapeutic dose of dextromethorphan
Description: Mice that were unable to maintain equilibrium for one continuous minute, given 3 opportunities were scored as ataxic.

[7] = test system: [^3 H]TCP-labeled-NMDA-linked receptor; conditions: cited from earlier work
[8] = test system: N-methyl-D-aspartate-induced seizures; assay: N-methyl-D-aspartate (NMDA) induced convulsions in mice; assay type: in vivo, mice (male CF-1); conditions: for % Protected: 30 min before NMDA 250 mg/kg; for protection against N-methyl-D-asparate-induced seizures (in words): i.p.
Method: When mice (male CF-1; 25-30 g) are administered NMDA (250 mg/kg; IP) animals typically respond with seizure activity consisting of an initial staring, followed in rapid order by hindlimb scratching, increased locomotor activity, rearing behavior, clonic seizures, tonic extension and death.
All drugs were dissolved in saline (0.9%; w/v) and delivered by intraperitoneal injection in a volume of 1.0% (w/v) of body weight.

[9] = test system: calcium-induced spasms in smooth muscle; conditions: cited from earlier work
[10] = test system: transauricular maximal electroshock seizure (MES); conditions: cited from earlier work
[11] = rats, dogs and humans; cited from earlier work

## OCCN1CCN(CCCN2c3ccccc3Sc3ccc(C(F)(F)F)cc32)CC1 [fluphenazine]
[1]
  effect on [^3 H]dextromethorphan binding / binding to the dextromethorphan site (in words): bind to the same central nervous system site

## OCCN1CCN(CCCN2c3ccccc3C=Cc3ccccc32)CC1 [opipramol]
[1]
  effect on [^3 H]dextromethorphan binding / binding to the dextromethorphan site (in words): bind to the same central nervous system site

## CCC1(C)CC(=O)NC1=O (centres unmarked) [Ethosuximide]
[2]; at one half hour
  mice protected: one in five
[2]; one hour after injection
  mice protected: none
[3]
  signs of sedation, ataxia and gross toxicity: all mice injected showed signs of sedation, ataxia and gross toxicity

## c1ccc(C2(N3CCCCC3)CCCCC2)cc1 [phencyclidine]
[1]
  effect on [^3 H]dextromethorphan binding / binding to the dextromethorphan site (in words): do not inhibit or enhance binding

## CCN(CC)CCOCCOC(=O)C1(c2ccccc2)CCCC1 [carbetapentane]
[1]
  effect on [^3 H]dextromethorphan binding / binding to the dextromethorphan site (in words): bind to the same central nervous system site
  IC50: 0.001 to 0.075 µM

## OCCN1CCN(CCCN2c3ccccc3Sc3ccc(Cl)cc32)CC1 [perphenazine]
[1]
  effect on [^3 H]dextromethorphan binding / binding to the dextromethorphan site (in words): bind to the same central nervous system site

## OCCN1CCN(CC/C=C2/c3ccccc3Sc3ccc(C(F)(F)F)cc32)CC1 [flupenthinol]
[1]
  effect on [^3 H]dextromethorphan binding / binding to the dextromethorphan site (in words): bind to the same central nervous system site

## CN1C(=O)CN=C(c2ccccc2)c2cc(Cl)ccc21 [diazepam]
[1]
  effect on [^3 H]dextromethorphan binding / binding to the dextromethorphan site (in words): do not inhibit or enhance binding

## c1ccc(C2(c3ccccc3)OC[C@H]([C@@H]3CCCCN3)O2)cc1 [dexoxadrol]
[1]
  effect on [^3 H]dextromethorphan binding / binding to the dextromethorphan site (in words): do not inhibit or enhance binding

## CN(C)CCOCCOC(=O)N1c2ccccc2Sc2ccccc21 [dimethoxanate]
[1]
  effect on [^3 H]dextromethorphan binding / binding to the dextromethorphan site (in words): bind to the same central nervous system site
  IC50: 0.001 to 0.075 µM

## Nc1ccccc1 [phenylamine]
[1]
  effect on [^3 H]dextromethorphan binding / binding to the dextromethorphan site (in words): bind to the same central nervous system site

## COc1ccc2c(c1)[C@]13CCCC[C@@H]1[C@H](C2)N(C)CC3 [dextromethorphan]
[4]; DM 6.6 mg/kg i.p. alone
  % Protected: 0%
[4]; DM 10 mg/kg i.p. alone
  % Protected: 16.6%
[4]; DM 27 mg/kg i.p. alone
  % Protected: 50%
[4]; DM 30 mg/kg i.p. alone
  % Protected: 66.6%
[4]; low vs higher doses of dextromethorphan combined with CPP
  effect of dextromethorphan on anticonvulsant activity of CPP (in words): readily apparent only when low doses of dextromethorphan were administered in combination with anticonvulsant doses of CPP; also recorded: higher doses of dextromethorphan were either ineffective to increase the anticonvulsant activity of CPP or, partially attenuated the activity
[5]
  absolute plasma levels: five
[6]
  increment in carbamazepine's CNS side effects (in words): little increment in carbamazepine's CNS side effects
[7]
  binding at phencyclidine-labeled/N-methyl-D-asparate linked receptors (in words): bind at phencyclidine-labeled/N-methyl-D-asparate linked receptors
[2]; 0 mg/kg CBM + 10 mg/kg DM (DM alone)
  % Mice Protected: 0%
[2]; 0 mg/kg CBM + 20 mg/kg DM (DM alone)
  % Mice Protected: 8%
[2]; 10 and 20 mg/kg, with 0 CBM
  protection when administered alone (in words): little or no protection
[2]; DM 5 mg/kg i.p., one-half hour before MES
  % Protected: 0%
[2]; DM 10 mg/kg i.p., one-half hour before MES
  % Protected: 0%
[2]; DM 20 mg/kg i.p., one-half hour before MES
  % Protected: 8%
[2]; DM 25 mg/kg i.p., one-half hour before MES
  % Protected: 25%
[2]; DM 30 mg/kg i.p., one-half hour before MES
  % Protected: 37.5%
[2]; DM 35 mg/kg i.p., one-half hour before MES
  % Protected: 75%
[2]; DM 45 mg/kg i.p., one-half hour before MES
  % Protected: 87.5%
[2]; DM 55 mg/kg i.p., one-half hour before MES
  % Protected: 100%
[2]; Mus musculus, ip, 0.5 h, DM alone, i.p., one-half hour before MES, range in parentheses, read-out: ED50
  ED50: 29.2 mg/kg
[2]; alone, i.p., one-half hour before MES
  anticonvulsant activity (in words): dose dependent anticonvulsant activity
[8]; DM 10 mg/kg i.p. alone
  % Protected: 33%
[8]
  protection against N-methyl-D-asparate-induced seizures (in words): afforded protection
[1]; read-out: Kd, high affinity binding of [^3 H]dextromethorphan, homogenates of guinea pig, rat and mouse lower brainstem
  Kd: < 0.02 µM
[9]
  block of calcium-induced spasms in smooth muscle (in words): block calcium-induced spasms in smooth muscle
[10]; 30 mg/kg, by itself
  protection against transauricular maximal electroshock seizure (in words): provide protection against transauricular maximal electroshock seizure (MES)
[10]; standard testing conditions
  protection time against MES compared with dilantin (in words): somewhat longer protection time against MES than that exhibited by dilantin

## CC(CN1c2ccccc2Sc2ccccc21)N(C)C (centres unmarked) [promethazine]
[1]
  effect on [^3 H]dextromethorphan binding / binding to the dextromethorphan site (in words): bind to the same central nervous system site

## CN(C)CCCN1c2ccccc2Sc2ccc(Cl)cc21 [chlorpromazine]
[1]
  effect on [^3 H]dextromethorphan binding / binding to the dextromethorphan site (in words): bind to the same central nervous system site

## CN1CCN(CCCN2c3ccccc3Sc3ccc(Cl)cc32)CC1 [prochlorperazine]
[1]
  effect on [^3 H]dextromethorphan binding / binding to the dextromethorphan site (in words): bind to the same central nervous system site

## COc1ccc2c(c1OC)C(=O)O[C@@H]2[C@H]1c2c(cc3c(c2OC)OCO3)CCN1C [noscapine]
[1]
  effect on [^3 H]dextromethorphan binding / binding to the dextromethorphan site (in words): markedly increased
[1]; listed as roscapine
  effect on [^3 H]dextromethorphan binding / binding to the dextromethorphan site (in words): bind to the same central nervous system site

## CCN(CC)CCOC(=O)C1(c2ccccc2)CCCC1 [caramiphen]
[1]
  effect on [^3 H]dextromethorphan binding / binding to the dextromethorphan site (in words): bind to the same central nervous system site
  IC50: 0.001 to 0.075 µM

## O=C(O)C1CN(CCCP(=O)(O)O)CCN1 (centres unmarked) [CPP, 3-(2-carboxypiperazin-4-yl)propyl-1-phosphono acid]
[4]; CPP 5 mg/kg i.p. alone
  % Protected: 25%
[4]; CPP 10 mg/kg i.p. alone
  % Protected: 60%
[8]; CPP 1.5 mg/kg i.p. alone
  % Protected: 12.5%
[8]; CPP 2.0 mg/kg i.p. alone
  % Protected: 37.5%
[8]
  protection against N-methyl-D-asparate-induced seizures (in words): afforded protection

## O=C(OCCOCCN1CCCCC1)N1c2ccccc2Sc2cccnc21 [pipazethate]
[1]
  effect on [^3 H]dextromethorphan binding / binding to the dextromethorphan site (in words): bind to the same central nervous system site

## CCC1(c2ccccc2)C(=O)NC(=O)NC1=O [phenobarbital]
[1]
  effect on [^3 H]dextromethorphan binding / binding to the dextromethorphan site (in words): do not inhibit or enhance binding

## CC(CN(C)C)CN1c2ccccc2Sc2ccccc21 (centres unmarked) [trimeprazine]
[1]
  effect on [^3 H]dextromethorphan binding / binding to the dextromethorphan site (in words): bind to the same central nervous system site

## CN1CC[C@@]23CCCC[C@@H]2[C@@H]1Cc1ccc(O)cc13 [dextrorphan]
[11]
  ratio of dextrorphan to dextromethorphan in plasma and urine: exceeds 100 to 1

## C(=C\c1ccccc1)/CN1CCN(C(c2ccccc2)c2ccccc2)CC1 [cinnarizine]
[1]
  effect on [^3 H]dextromethorphan binding / binding to the dextromethorphan site (in words): bind to the same central nervous system site

## CN1[C@@H]2CC[C@H]1C[C@@H](OC(c1ccccc1)c1ccccc1)C2 [benztropine]
[1]
  effect on [^3 H]dextromethorphan binding / binding to the dextromethorphan site (in words): bind to the same central nervous system site

## CN1CCN(CCCN2c3ccccc3Sc3ccc(C(F)(F)F)cc32)CC1 [trifluorperazine]
[1]
  effect on [^3 H]dextromethorphan binding / binding to the dextromethorphan site (in words): bind to the same central nervous system site

## CNC1(c2ccccc2Cl)CCCCC1=O (centres unmarked) [ketamine]
[1]
  effect on [^3 H]dextromethorphan binding / binding to the dextromethorphan site (in words): do not inhibit or enhance binding
